Measured values: patent publication US4810709A, “Nintrovincaminic acid derivatives having pharmaceutical utility” (Richter Gedeon Vegyeszefi Gyar R.T., priority 1984, dated 1989)
Converted amounts (≈) assume the structure as drawn. Counter-ions that a name gives are not always drawn. Like-named read-outs stand apart in the source and are kept apart here.

Experiments:
femoral artery = experiment: extremital blood flow in the femoral artery of anaesthetized dogs (vasodilating effect); format: in vivo; conditions: 1 mg/kg of body-weight intravenous, chloralose-pentobarbital anaesthetized dogs
Experimental: (§1) The vasodilating effect was studied in dogs anaesthetized by a chloralose-pentobarbital mixture. […] Electromagnetic flow meters were used for measuring the blood flow. The substances under test were intravenously administered in a dose of 1 mg/kg of body-weight to 6 dogs and the percentage changes of the parameters measured were evaluated. Ethyl (+)-apovincamate, a commonly used therapeutic cerebral vasodilator was employed as reference drug.

internal carotid artery = experiment: cerebral blood flow in the internal carotid artery of anaesthetized dogs (vasodilating effect); format: in vivo; conditions: 1 mg/kg of body-weight intravenous, chloralose-pentobarbital anaesthetized dogs
Experimental: as §1

[1] = tested on: conscious mice under normobaric hypoxia; experiment: antihypoxic activity on conscious mice under normobaric hypoxia; format: in vivo; conditions: 50 mg/kg i.p.; for Time of survival, % / Time of survival, Mean ± deviation: 96% nitrogen and 4% oxygen; for Time of survival, %: increase over control; for Time of survival, Mean ± deviation: 30 minutes before, control 6.0 ± 1.04 min; for Protection: protected = alive for twofold time of untreated animals
Experimental: According to one method, the antihypoxic activity was studied on conscious mice under normobaric hypoxia. Five male mice were placed in a glass cylinder of 3 liters volume flown through by a gas mixture containing 96% of nitrogen and 4% of oxygen. The time interval from the allocation up to the perishment of the animals was measured for 15 minutes as a maximum. The animals were considered as protected when they were alive for a twofold time length as compared to the time of perishment of the untreated animals. The compounds under test were intraperitoneally administered to 10 animals each in a dose of 50 mg/kg of body-weight 30 minutes before allocating in the glass cylinder.

[2] = tested on: isolated guinea pig ileum; experiment: Inhibition of barium-chloride-induced contraction of guinea pig ileum (spasmolytic activity); conditions: for IC50: Cavia porcellus, read-out: ED50, inhibition of barium-chloride-induced contraction of guinea pig ileum
Experimental: The spasmolytic activity of the compounds was determined by using the traditional method, i.e. on the isolated guinea pig ileum [Magnus, R., Pflugers Arch. 102, 123 (1904)]. Papaverine and ethyl (+)-apovincamate used as therapeutic spasmolytics were used as reference drugs.

mice [3] = experiment: metrazole seizure method (anticonvulsive); format: in vivo; conditions: Mus musculus, po; 125 mg/kg s.c. pentylenetetrazole; p.o.; read-out: Anticonvulsive effect, Metrazole seizure ED50
Experimental: On using the metrazole seizure method [Everett, G. M. and Richards, R. K.: J. Pharmacol. Exp. Ther., 81, 402 (1944)], a subcutaneous dose of 125 mg/kg of pentylenetetrazole was administered to mice after pre-treatment. The persistant clonic convulsions as well as the tonic extensory convulsions abolished by the treatment were registered.

mice [4] = experiment: maximal electroshock model (anticonvulsive); format: in vivo; conditions: Mus musculus, po; 20 mA, 0.2 sec.; p.o.; read-out: Anticonvulsive effect, Max. electroshock ED50
Text: On using the maximal electroshock model [Swinyard E. A. et at.: J. Pharmacol. Exp. Ther. 106, 319 (1959)], a shock (20 mA, 0.2 sec. HSE Shock Equipment Type 207) was given to mice weighing 22 to 24 g by using corneal electrodes. The animals were considered as protected the tonic extension of the lower extremities of which were abolished.

in vivo [5] = experiment: in vivo; design: species or system mice; conditions: mouse, po
Text: On determining the muscle relaxant activity (traction test), male mice weighing 18 to 22 g were suspended by their upper legs on a horizontal wire of 5 mm in diameter.

in vivo [6] = conditions: po
Experimental: On using the muscle incoordination model (rotarod method) [H. Kwibara et al.: Japan J. Pharmacol. 27, 117 (1977)], after a previous training the animals were selected which could […] for 120 seconds on a horizontal rod of 20 mm in diameter rotating with 12 rpm. A muscle-incoordinating action was stated when the animals fell down from the rotating rod within the time limits.

hypobaric hypoxia test = format: in vivo; conditions: 1 h; oral, one hour before, 170 Hgmm; protected = survival longer by 100% than control
Experimental: (§2) According to the hypobaric hypoxia test [Baumel J. et al.: Proc. Soc. Bio. N.Y. 132, 629 (1969)], the animals were starved for 16 hours, then treated orally and one hour following the treatment they were allocated in an exsiccator where the pressure was decreased to 170 Hgmm within 20 seconds. The time of survival was registered from this time point up to the last respiration. The animals were considered as protected when they were alive for a time longer by 100% than the average time of survival of the control group. The ED50 value (i.e. the dose which was effective in 50%) was calculated from the percentage of the protected animals by using the probit analysis method.

asphyxic anoxia test = format: in vivo; conditions: 1 h; oral, one hour before; protected = survival longer by 30% than control
Experimental: According to the asphyxic anoxia test [Caillard O. et al.: Life Sci. 16, 1607 (1975(], the animals were starved for 16 hours, then treated orally, and one hour following the treatment they were allocated in tightly closed glass bottles of 100 ml volume. The time of survival was registered as the time interval from closing the bottle up to the last respiration. The animals were considered as protected when they were alive for a time longer by 30% than the average time of survival of the control group.
as §2

[7] = isolated guinea pig ileum, barium chloride

Molecule	Circulatory effects (change in %): Femoral flow (femoral artery)	Circulatory effects (change in %): Carotid artery flow (internal carotid artery)	Time of survival, % [1] [%]	Time of survival, Mean ± deviation [1] [min]	Protection [1] [%]	ED50 (hypobaric hypoxia test) [mg/kg]	ED50 (asphyxic anoxia test) [mg/kg]	also measured
CCC12C=C(C(=O)OCCO)n3c4c(c5c([N+](=O)[O-])cccc53)CCN(CCC1)C42 (single isomer, unassigned) [2-Hydroxyethyl 9-nitroapovincamate, 2-hydroxyethyl 9-nitroapovincamate]	+10%	+45%	–	–	–	–	–	–
CCOC(=O)C1=CC2(CC)CCCN3CCc4c(n1c1cccc([N+](=O)[O-])c41)C32 (single isomer, unassigned) [Ethyl 9-nitroapovincamate, ethyl 9-nitroapovincamate]	0%	+95%	123	13.4 ± 2.37	80	–	–	IC50 [2, 7]: 1 µg/mL (≈ 2.53 µM)
CCOC(=O)C1=CC2(CC)CCCN3CCc4c(n1c1cc([N+](=O)[O-])ccc41)C32 (single isomer, unassigned) [Ethyl 11-nitroapovincamate, ethyl 11-nitroapovincamate]	–	–	83	11.0 ± 3.35	50	–	–	–
CCOC(=O)C1=CC2(CC)CCCN3CCc4c(n1c1cccc([N+](=O)[O-])c41)C32 (single isomer, unassigned) [ethyl 9-nitroapovincamate monohydrochloride]	–	–	–	–	–	> 50	42.7	ED50 (mice [3]): 27.6 mg/kg; ED50 (mice [4]): 25.6 mg/kg; TD50 (in vivo [5]): > 180 mg/kg; TD50 (in vivo [6]): > 180 mg/kg
CCOC(=O)C1=C[C@]2(CC)CCCN3CCc4c(n1c1ccccc41)[C@@H]32 [Ethyl (+)-apovincamate, reference compound]	+15%	+30%	7	6.4 ± 1.58	–	> 50	> 50	IC50 [2, 7]: 2 µg/mL (≈ 5.71 µM)
CCC1(c2ccccc2)NC(=O)N(C)C1=O (centres unmarked) [Mephenytoin]	–	–	–	–	–	> 80	> 80	TD50 (in vivo [6]): 78.6 mg/kg
COc1ccc(Cc2nccc3cc(OC)c(OC)cc23)cc1OC [Papaverine, reference compound]	–	–	–	–	–	–	–	IC50 [2]: 5.4 µg/mL (≈ 15.9 µM)
CCCOC(=O)C1=C[C@]2(CC)CCCN3CCc4c(n1c1cccc([N+](=O)[O-])c41)[C@@H]32 [Propyl 9-nitroapovincamate]	–	–	–	–	–	–	–	ED50, inhibition of barium-chloride-induced contraction of guinea pig ileum [2, 7]: 0.2 µg/mL
CC[C@]12CCCN3CCc4c(n(c5ccccc45)[C@@](O)(C(=O)OC)C1)[C@@H]32 [Vincamine, reference compound]	–	–	2	6.1 ± 1.30	–	–	–	–
Acetoxyethyl 9-nitroapovincamate	–	–	68	10.1 ± 3.51	30	–	–	ED50, inhibition of barium-chloride-induced contraction of guinea pig ileum [2, 7]: 0.4 µg/mL
